What is called pEC50 is the negative decadic logarithm of the EC50, by convention in mol/L. In general, pIC50 refers to −log10 of the IC50, conventionally taken in molar units. A lower pIC50 goes with a large IC50.

pEC50, pIC50: −log10 of the molar value. Structures can show the parent of a compound that is named as a salt.

Sequence of Arginase-1 (P05089 whole entry, species assumed): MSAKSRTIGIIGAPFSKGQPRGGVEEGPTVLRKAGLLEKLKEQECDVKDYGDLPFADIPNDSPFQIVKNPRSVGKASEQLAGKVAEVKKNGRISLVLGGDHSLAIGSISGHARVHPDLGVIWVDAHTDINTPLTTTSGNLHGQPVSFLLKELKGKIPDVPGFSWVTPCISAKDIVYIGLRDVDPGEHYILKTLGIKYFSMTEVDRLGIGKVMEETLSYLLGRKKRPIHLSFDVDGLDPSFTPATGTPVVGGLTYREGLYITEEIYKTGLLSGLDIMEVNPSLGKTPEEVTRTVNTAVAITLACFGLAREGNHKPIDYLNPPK

One experiment has as its system Primary Peripheral Blood Mononuclear Cells (PBMC). Put plainly: PBMC activity evaluation test (T cell proliferation suppressed by synthetic arginase 1, CellTiter-Glo). The format is cell-based. The note with it: PBMC with α-CD3/α-CD28 antibodies and synthetic arginase 1, 72 hours, CellTiter-Glo luminescence; read-out: EC50. On the procedure:
A Primary Peripheral Blood Mononuclear Cells (PBMC) activity test was performed for the compound according to the present disclosure. […] To evaluate the proliferation of T cells, the CellTiter-Glo® Luminescent Cell Viability (Promega, Catalog #G7571) evaluation method was used, which can confirm the proliferation of cells by quantifying the ATP present in the cells. In addition to the compound according to the present disclosure, the compound CB-1158 (Numidargistat) was also tested together for comparison.
Specifically, α-CD3 antibody was coated on a clear 96-well microplate. 1×10^5 PBMC cells were placed in each well. RPMI media (10% FBS, 1% penicillin/streptomycin) was used as the cell culture medium. α-CD28 antibody and synthetic arginase 1 were added to each well. The compounds prepared in Examples were treated at different concentrations (2, 1, 0.5, 0.25, 0.125, 0.0625, 0.03125 μM). After incubating for 72 hours, 50 μL of cells from each well were transferred to a white 96-well microplate, and mixed with 50 μL of CellTiter-Glo® solution.
After performing the reaction at room temperature for 10 minutes in the state where light was blocked, the luminescence was measured. The measurement results for each compound were calculated using Excel, and the EC50 value was calculated using GraphPad Prism software.
(In general: In ATP-based viability assays light output follows the ATP content of the culture.)
In the case of `O=C(O)[C@]1(CCCCB(O)O)NC[C@@H]2NCC[C@@H]21` [Example 1, (3aS,4R,6aR)-4-(4-boronobutyl)octahydropyrrolo[3,4-b]pyrrole-4-carboxylic acid dihydrochloride], the pEC50 was above 7.00.

The same experiment, now with this note: PBMC, 72 h.
`C[C@H](N)C(=O)N1C[C@H](CCCB(O)O)[C@](N)(C(=O)O)C1` [CB-1158 (Numidargistat), Numidargistat, reference compound] showed a pEC50 of 6.30 to 7.00.

The target in another experiment is Arginase-1 (Homo sapiens (Human), UniProt P05089). Briefly: Arginase inhibitory activity test. The format is biochemical. The note with it: Arginase-1, L-arginine substrate, absorbance at 450 nm. On the procedure:
An arginase inhibitory activity test was conducted for the compound according to the present disclosure.
Specifically, all reagents required for evaluation were diluted in a reaction buffer (8 mM NAHPO4, 2 mM KH2PO4, pH 7.5, 137 mM NaCl, 2.7 mM KCl, and 0.05% Tween-20), and the compound was dissolved in DMSO and then diluted, and then diluted in the reaction buffer to conform to the desired concentration. 10 μL of the compound and 10 μL of 30 nM Arginase-1 were mixed in a transparent 96-well plate (SPL), and incubated at room temperature for 1 hour or more. After that, 10 μL of 15 mM L-arginine and 3 mM MnCl2 were added to the plate, and then reacted at room temperature for 30 minutes or more. Finally, 30 μL of a 1:1 mixture of reagent A (10 mM o-phthaldialdehyde, 0.4% polyoxyethylene lauryl ether, and 1.8M sulfuric acid in DW) and reagent B (1.3 mM primaquine diphosphate, 0.4% polyoxyethylene lauryl ether, and 3.6 M sulfuric acid in DW) was added to complete the enzyme reaction, and incubated at room temperature for 1 hour or more. The plate after incubation was measured for absorbance at 450 nm using a Flexstation3 multi-mode microplate reader (Molecular Devices).
The background control (BC) reading value was subtracted from all reading values to obtain the ΔOD for each reading value. The ΔOD of the enzyme control (EC) was set to the maximum value, and the % relative Arginase-1 activity of each compound (S) was calculated using the following Equation, and the IC50 value of the compound was determined using PRISM (GraphPad software).
Take `O=C(O)[C@]1(CCCCB(O)O)NC[C@@H]2NCC[C@@H]21` [Example 1, (3aS,4R,6aR)-4-(4-boronobutyl)octahydropyrrolo[3,4-b]pyrrole-4-carboxylic acid dihydrochloride]: the pIC50 is above 7.00. `C[C@H](N)C(=O)N1CC[C@H]2[C@@H]1CN[C@@]2(CCCCB(O)O)C(=O)O` [Example 2, (3aS,4R,6aR)-1-((S)-2-aminopropanoyl)-4-(4-boronobutyl)octahydropyrrolo[3,4-b]pyrrole-4-carboxylic acid dihydrochloride] had a pIC50 of 6.00 to 7.00. As for `N[C@@H](Cc1ccccc1)C(=O)N1CC[C@H]2[C@@H]1CN[C@@]2(CCCCB(O)O)C(=O)O` [Example 3, (3aS,4R,6aR)-1-((S)-2-amino-3-phenylpropanoyl)-4-(4-boronobutyl)octahydropyrrolo[3,4-b]pyrrole-4-carboxylic acid dihydrochloride], the pIC50 was 6.00 to 7.00. In turn, `O=C([C@@H]1CCCN1)N1CC[C@H]2[C@@H]1CN[C@@]2(CCCCB(O)O)C(=O)O` [Example 4, (3aS,4R,6aR)-4-(4-boronobutyl)-1-((S)-pyrrolidine-2-carbonyl)octahydropyrrolo[3,4-b]pyrrole-4-carboxylic acid dihydrochloride] had a pIC50 of 6.00 to 7.00. On to `C[C@H](O)[C@@H](N)C(=O)N1CC[C@H]2[C@@H]1CN[C@@]2(CCCCB(O)O)C(=O)O` [Example 5, (3aS,4R,6aR)-1-((2R,3S)-2-amino-3-hydroxybutanoyl)-4-(4-boronobutyl)octahydropyrrolo[3,4-b]pyrrole-4-carboxylic acid dihydrochloride], for which the pIC50 was 6.00 to 7.00. `CC(C)[C@H](N)C(=O)N1CC[C@H]2[C@@H]1CN[C@@]2(CCCCB(O)O)C(=O)O` [Example 6, (3aS,4R,6aR)-1-((S)-2-amino-3-methylbutanoyl)-4-(4-boronobutyl)octahydropyrrolo[3,4-b]pyrrole-4-carboxylic acid dihydrochloride] gave a pIC50 below 6.00.

Regarding `CC(C)C[C@H](N)C(=O)N1CC[C@H]2[C@@H]1CN[C@@]2(CCCCB(O)O)C(=O)O` [Example 7, (3aS,4R,6aR)-1-((S)-2-amino-4-methylpentanoyl)-4-(4-boronobutyl)octahydropyrrolo[3,4-b]pyrrole-4-carboxylic acid dihydrochloride], the pIC50 is below 6.00. `C[C@@H](N)C(=O)N1CC[C@H]2[C@@H]1CN[C@@]2(CCCCB(O)O)C(=O)O` [Example 9, (3aS,4R,6aR)-1-((R)-2-aminopropanoyl)-4-(4-boronobutyl)octahydropyrrolo[3,4-b]pyrrole-4-carboxylic acid dihydrochloride] showed a pIC50 below 6.00.

The molecule `CN1CC[C@H]2[C@@H]1CN[C@@]2(CCCCB(O)O)C(=O)O` [Example 27, (3aS,4R,6aR)-4-(4-boronobutyl)-1-methyloctahydropyrrolo[3,4-b]pyrrole-4-carboxylic acid hydrochloride] had a negative-log IC50 (pIC50) above 7.00.

In turn, `CNCCN1CC[C@H]2[C@@H]1CN[C@@]2(CCCCB(O)O)C(=O)O` [Example 28, (3aS,4R,6aR)-4-(4-boronobutyl)-1-(2-(methylamino)ethyl)octahydropyrrolo[2,3-c]pyrrole-4-carboxylic acid hydrochloride] gave a pIC50 of 6.00 to 7.00.

The values above are taken from US20250320233A1, “ARGINASE INHIBITOR AND PHARMACEUTICAL COMPOSITION COMPRISING THE SAME” (Daewoong Pharmaceutical Co., Ltd., priority 2022, published 2025).
